Data set [1] deals with HL-60. Briefly: Antioxidant activity in human HL60 cells assessed as inhibition of TPA-stimulated hydrogen peroxide induced DCFH-DA oxidation by fluorometric microplate assay. Format: functional, cell-based.
Data set [2] has as its system HL-60. Nature of the data set: Cytotoxicity against human HL60 cells by XTT assay. Type of data set: functional, cell-based.
Data set [3] deals with Vero. Nature of the data set: Cytotoxicity against african green monkey Vero cells upto 48 uM. Type of data set: cell-based. As to conditions: chlorocebus sabaeus.
For data set [4], the system named is LLC-PK1. Briefly: Cytotoxicity against pig LLC-PK1 cells upto 48 uM. Format: cell-based, Sus scrofa.

pIC50: −log10 of the molar value. Activity calls are given as the source filed them. The calls are words filed in the database; no cut-off is given here. Some results are limits rather than exact numbers.

For 17 molecules, Activity and IC50 results are on record in ChEMBL document CHEMBL1157286, “Schisandrene, a dibenzocyclooctadiene lignan from Schisandra chinensis: structure-antioxidant activity relationships of dibenzocyclooctadiene lignans” (J Nat Prod, 2006).

Regarding `COc1cc2c(c(OC)c1OC)-c1c(cc3c(c1OC)OCO3)C[C@H](C)[C@](C)(O)C2`, the outcome in data set [1] and in data set [2] was inactive.
As for `C/C=C(/C)C(=O)Oc1c(OC)c(OC)cc2c1-c1c(cc(OC)c(OC)c1OC)CC(C)(O)C(C)C2` (centres undefined) [ANGELOYLGOMISIN], the pIC50 was 4.09 in data set [1] and 4.34 in data set [2]. Further, the Activity result in data set [3] and in data set [4] was “Not Active” throughout.
As to `O=C1O[C@H]([C@@H](O)CO)C(O)=C1O` [ASCORBIC ACID], the negative logarithm of the IC50 (pIC50) in data set [1] was 4.99. Besides, the result in data set [2] was inactive.
Take `COc1cc2c(c(OC)c1OC)-c1c(cc(OC)c(OC)c1OC(=O)c1ccccc1)CC(C)C(C)(O)C2` (centres undefined) [BENZOYLGOMISIN H]: the result in data set [1] was inactive. Moreover, the pIC50 in data set [2] is 4.39. Further, the Activity result in data set [3] and in data set [4] was “Not Active” each time.
Consider `COc1cc2c(c(OC)c1OC)-c1c(cc3c(c1OC)OCO3)C[C@H](C)[C@@](C)(O)C2` [GOMISIN A], for which the Activity result in data set [3] and in data set [4] was “Not Active” in each case.
Take `C/C=C(/C)C(=O)O[C@H]1c2cc(OC)c(OC)c(OC)c2-c2c(cc3c(c2OC)OCO3)C[C@H](C)[C@]1(C)O` [GOMISIN B]: the Activity result in data set [3] and in data set [4] was “Not Active” in each case.
For the molecule `C/C=C(\C)C(=O)O[C@H]1c2cc(OC)c(OC)c(OC)c2-c2c(cc3c(c2OC)OCO3)C[C@H](C)[C@]1(C)O` [GOMISIN B], the pIC50 in data set [1] was below 3.93. For the same molecule, the outcome in data set [2] was inactive.
As for `COc1cc2c(c(OC)c1OC)-c1c(cc3c(c1OC)OCO3)[C@H](OC(=O)c1ccccc1)[C@@](C)(O)[C@@H](C)C2` [GOMISIN G], the pIC50 in data set [1] is 4.42; in data set [2], 4.32. Further, the Activity result in data set [3] and in data set [4] was “Not Active” in each case.
Consider `COc1cc2c(c(O)c1OC)-c1c(cc(OC)c(OC)c1OC)CC(C)C(C)C2` (centres undefined) [GOMISIN K3], for which the pIC50 in data set [1] was below 3.81; in data set [2], 4.25. In addition, the Activity result in data set [3] and in data set [4] was “Not Active” throughout.
Consider `CC(Cc1ccc(O)c(O)c1)C(C)Cc1ccc(O)c(O)c1` (centres undefined) [NORDIHYDROGUAIARETIC ACID], for which the values for the pIC50 in data set [1] and in data set [2] were 5.64 and 4.91, respectively.
With `C=C1[C@H](C)Cc2cc3c(c(OC)c2-c2c(cc4c(c2OC)OCO4)[C@H]1OC(=O)c1ccccc1)OCO3` [SCHISANDRENE], the pIC50 was 5.55 in data set [1] and 4.25 in data set [2]. Also, the Activity entry in data set [3] and in data set [4] was “Not Active” each time.
As to `COc1cc2c(c(OC)c1OC)-c1c(cc(OC)c(OC)c1OC)C[C@H](C)[C@H](C)C2` [SCHISANDRIN A], the outcome in data set [1] and in data set [2] was inactive. Further, the Activity result in data set [3] and in data set [4] was “Not Active” throughout.
Take `COc1c2c(cc3c1-c1c(cc4c(c1OC)OCO4)C[C@H](C)[C@H](C)C3)OCO2` [SCHISANDRIN C]: the result in data set [1] was inactive. Moreover, the pIC50 in data set [2] was 4.39. In addition, the Activity result in data set [3] and in data set [4] was “Not Active” throughout.
`COc1cc2c(c(OC)c1OC)-c1c(cc(OC)c(OC)c1OC)C[C@](C)(O)[C@@H](C)C2` [SCHIZANDRIN]: the outcome in data set [1] and in data set [2] was inactive. Further, the Activity entry in data set [3] and in data set [4] was “Not Active” each time.
Turning to `C/C=C(\C)C(=O)Oc1c(OC)c(OC)cc2c1-c1c(cc(OC)c(OC)c1OC)C[C@](C)(O)[C@@H](C)C2` [TIGLOYLGOMISIN H], the pIC50 in data set [1] was below 3.90; in data set [2] it was 4.35. Further, the Activity result in data set [3] and in data set [4] was “Not Active” throughout.
As to `Cc1c(C)c2c(c(C)c1O)CCC(C)(C(=O)O)O2` (centres undefined) [TROLOX], the pIC50 in data set [1] is 5.44. Moreover, in data set [2], the outcome was inactive.
Take `COc1cc2c(c(OC)c1OC)-c1c(cc3c(c1OC)OCO3)C[C@H](C)[C@H](C)C2` [WUWEIZISU B]: the outcome in data set [1] was inactive. Further, the pIC50 in data set [2] is 4.28. Further, the Activity entry in data set [3] and in data set [4] was “Not Active” throughout.
